# Key:
# [1] = test system: MCF-7 cells; experiment: Cell cycle of MCF-7 cells with IGF1; type: cell-based, human
# Description: The inhibition of the cell growth observed in vitro on the line MCF-7 should be manifested by an effect on the cell cycle. In order to reply to this question, 4·10^5 cells are inoculated into 6-well plates. […] After incubation for 24 hours, the cells are recovered for the study of the cell cycle.
# [2] = test system: P388 murine leukemia; experiment: P388 murine leukemia grafted intravenously, survival (T/C); type: in vivo, CDF1 mice
# Description: The compound is administered intraperitoneally in a single dose on day 1. The protocol for this test is described by Kruczynski A. et al., Cancer Chemotherapy and Pharmacology, 1998, volume 41, pages 437 to 447.
# Conventionally, the in vivo activity of cytotoxic compounds is expressed by the T/C at a dose expressed in mg per kg. The T/C corresponds to the ratio, multiplied by 100, of the median of the survival time of the treated animals to the median of the survival time of the control animals.
# The protocol for this test is described by Kruczynski A. et al., Cancer Chemotherapy and Pharmacology, 1998, volume 41, pages 437 to 447.
# To do this, a total of 10^6 P388 murine leukemia cells were implanted i.v. in CDF1 mice on day 0. After randomization of the animals in cages for treatment with each alkaloid and control cages, the compounds were administered i.p. on day 1.
# Conventionally, the in vivo activity of compounds is expressed by the increase in survival time. The survival time is expressed by the T/C at a dose expressed in mg per kg (mg/kg). The T/C corresponds to the ratio, multiplied by 100, of the median of the survival time of the treated animals to the median of the survival time of the control animals. In agreement with the standard criteria of the NCl, a T/C of 120 corresponds to a minimum level for concluding that activity is present.
# A T/C below 75 expresses toxicity of the test compound at the dose administered.
# [3] = test system: A549 tumor; experiment: A549 non-small cell lung tumor subcutaneous xenograft; type: in vivo, nude mice; conditions: RDV, SDV […], 4 i.p. injections 7 days apart; conjugates […] agent and 250 μg/dose antibody
# Description: Navelbine is a chemotherapy compound indicated in non-small cell cancer of the lung and in metastatic cancer of the breast. […] For this study, 5·10^6 A549 cells were grafted subcutaneously on the right flank of the mouse. Five days after the cell graft, the tumors are measurable and the treatments with MAb and/or navelbine are commenced. The MAb dose is always 250 μg/dose/mouse, twice per week, intra-peritoneally. Concerning navelbine, it will be administered at the maximum dose tolerated by the mouse or 10 mg/kg, intraperitoneally. For this treatment three injections will be carried out at intervals of 7 days. During the coadministrations, the two products are mixed before injection.
# For this study, nude mice are grafted s.c. with 5·10^6 A549 cells. Five days after the cell graft, the tumors are measured and a homogeneous batch of mice in terms of tumor volume is formed. Starting from this batch, groups of 6 mice are generated at random.
# To do this, 5·10^6 A549 cells were implanted subcutaneously in nude mice. Five days after this implantation, the tumors were measured and groups of 6 mice were formed. […] This granule is essential to the establishment of any E2-dependent human tumor in this animal species.
# These conjugates are administered according to the same modes as the groups given the chemotherapy compounds alone; • the animals of the control batch are given injections of PBS, administered according to the same frequency.
# The weight of the mice and the tumor volume are evaluated twice a week. The tumor volumes are calculated according to the formula: ½ (length·width·height).
# [4] = test system: MCF-7 cells; experiment: Apoptosis of MCF-7 cells (Annexin V-FITC/DAPI flow cytometry); type: cell-based, human; conditions: doxorubicin 2 μg/ml, 24 hours, IGF-I 50 ng/ml
# Description: As indicated above, IGF-IR is capable of conferring protection against apoptosis when it is overexpressed on the surface of cells. […] In these experiments, the MCF-7 cells are inoculated at 2·10^4/cm^2 in Petri dishes and cultured for 24 h in RPMI without phenol red supplemented with 10% of fetal calf serum (FCS). The cells are then washed twice with PBS and put back into culture in medium with 0% FCS. They are allowed an adaptation time of 10 minutes at 37° C. before the addition of the antibodies at 10 μg/ml. After an extra 10 minutes at 37° C., recombinant IGF-I (Sigma) is added to the culture medium to a final concentration of 50 ng/ml. The cells are left at 37° C. again for one hour in order to allow the attachment of the antibodies and of the IGF-I. Finally, the doxorubicin (Sigma) is added to the culture medium at 2 μg/ml and the cells are incubated for 24 hours at 37° C.
# The experiments have likewise been conducted with navelbine at a concentration of 10 μg/ml.
# The analysis of the cell viability is carried out by flow cytometric analysis after labeling with the annexin V-FITC (20 minutes, 4° C.) and DAPI (2 μg/ml). The percentage of dead cells considered is the labeled population Annexin+/DAPI+. The antibody 5C2 is used as a control isotype.
# [5] = after addition of IGF1, 24 hours ([…] in the absence of IGF1)
# [6] = dose 0.63 mg/kg i.p. single dose day 1, T/C = median survival treated/control ×100, below 75 = toxicity
# [7] = dose 1.25 mg/kg i.p. single dose day 1
# [8] = dose 5 mg/kg i.p. single dose day 1
# [9] = dose 10 mg/kg i.p. single dose day 1
Molecule,"proportion of MCF-7 cells in G2/M phase ([1]; after addition of IGF1, 24 hours (4% in the absence of IGF1)) [%]","proportion of MCF-7 cells in G0/G1 phase [1, 5] [%]","proportion of MCF-7 cells in S phase [1, 5] [%]","T/C [2, 6]","T/C [2, 7]","T/C [2, 8]","T/C [2, 9]",T/C ([2]; dose 20 mg/kg i.p. single dose day 1),T/C ([2]; dose 40 mg/kg i.p. single dose day 1),"A549 tumor growth, deoxyvinblastines alone or coupled to h7C10 [3]","apoptosis, percentage of MCF-7 cells [4] [%]"
"IGF1: insulin-like growth factor 1, native ligand of IGF-IR",12.7,56.3,31,,,,,,,,
"CC[C@]1(O)C[C@@H]2CN(CCc3c([nH]c4ccccc34)[C@@](C(=O)OC)(c3cc4c(cc3OC)N(C)[C@H]3[C@@](O)(C(=O)OC)[C@H](OC(C)=O)[C@]5(CC)C=CCN6CC[C@]43[C@@H]65)C2)C1 [vinblastine, reference compound]",,,,114,114,143,57,,,,
"CCC1CC2CN(CCc3c([nH]c4ccccc34)[C@@](C(=O)OC)(c3cc4c(cc3OC)N(C)[C@H]3C(O)(C(=O)OC)[C@H](OC(C)=O)[C@]5(CC)C=CCN6CC[C@]43[C@@H]65)C2)C1 (stereo partly drawn) [4′-R-deoxyvinblastine, 4′-R deoxyvinblastine]",,,,100,100,143,200,214,43,evolve in the same manner as the control group,
"CC[C@]1(O)C[C@H]2CN(CCc3c([nH]c4ccccc34)[C@@](C(=O)OC)(c3cc4c(cc3OC)N(C=O)[C@H]3[C@@](O)(C(=O)OC)[C@H](OC(C)=O)[C@]5(CC)C=CCN6CC[C@]43[C@@H]65)C2)C1 [vincristine, reference compound]",,,,114,143,100,57,,,,
"CC[C@@H]1C[C@@H]2CN(CCc3c([nH]c4ccccc34)[C@@](C(=O)OC)(c3cc4c(cc3OC)N(C)[C@H]3[C@@](O)(C(=O)OC)[C@H](OC(C)=O)[C@]5(CC)C=CCN6CC[C@]43[C@@H]65)C2)C1 [4′-S-deoxyvinblastine, 4′-S deoxyvinblastine]",,,,114,143,100,57,,,evolve in the same manner as the control group,
"COc1cccc2c1C(=O)c1c(O)c3c(c(O)c1C2=O)C[C@@](O)(C(=O)CO)C[C@@H]3O[C@H]1C[C@H](N)[C@H](O)[C@H](C)O1 [doxorubicin, reference compound]",,,,,,,,,,,8

# Reference: patent US8101180B2, “Anti-IGF-IR and/or anti-insulin/IGF-I hybrid receptors antibodies and uses thereof” (Pierre Fabre Medicament, priority 2002, dated 2012)
